Molecules are shown by their SMILES. Several values for one entry are separate records, joined by “and”; a condition that tells them apart may be missing. Equal entries are not always repeated.

Data set [1] relates to coronary arteries in humans with coronary artery disease. The data set is described as follows: FFR during continuous intracoronary infusion via guiding catheter (Example 2). Conditions: Example 5 summary; Ttest 0.0034 adenosine vs UTP. More on the design: key: FFR = Pd/Pa (distal/proximal coronary pressure ratio). The format is in vivo.
The subject of another data set is leg blood flow. Conditions: cited from earlier work; for relative vasoactive potency (rank order): only for blood flows around 3.5 Lmin^−1.
For data set [2], the system named is pulmonary and systemic circulation of healthy female pigs. Briefly: Systemic (central intravenous) nucleotide infusion in pigs, hemodynamic response. The data set is classed as in vivo. As to conditions: for increase in CO (cardiac output): FIG. 7b; for increase in HR from baseline: FIG. 7c; for decrease in SV (stroke volume): FIG. 7d; for MAP lowered by, from baseline: p<0.05, FIG. 7a; for decrease in PVR (pulmonary vascular resistance) from baseline: pig, in vivo. The method, then: In the present study, the hemodynamic response in the pulmonary and systemic circulation was tested, as well as the effect of central intravenous infusions of ATP, ADP, ADO, and UTP on the heart.
Infusion rates were aimed at exerting a pronounced systemic response in the lowering of arterial blood pressure, but avoiding a total circulatory collapse.
Methods: 10 healthy female pigs (Department of Experimental Medicine and Surgery, University of Copenhagen, Denmark) bred as a combination of the Danish Landrace (⅓) and Yorkshire (⅔), with a medium weight of 41±2 kg were investigated.
Mean arterial blood pressure (MAP) was obtained from the catheter in arcus aorta with the transducer (Pressure Monitoring Kit, Baxter, Deerfield, Ill., USA) positioned at the level of the heart. The left femoral artery was subsequently exposed and an ultrasound doppler probe attached for peripheral femoral artery flow measurements (CM-4000, Cardiomed, Norway). MAP, HR and peripheral flow were monitored and data continuously collected using a PowerLab system (Adinstruments, Australia). Cardiac Output (CO) was determined in triplicates by thermodilution, following an injection of 10 ml of cooled saline solution. Blood samples were withdrawn from catheters in aorta and the right atrium at baseline and at steady state when MAP had decreased maximally or by ˜50%. Calculated variables were: stroke volume of the heart (SV=CO/HR), pulmonary vascular resistance (PVR=(MPAP−PCWP)/CO), systemic vascular resistance (SVR=(MAP−MRAP)/CO), leg vascular conductance (LVC=LBF/(MAP−MRAP)), and arterial (aorta) and mixed venous (pulmonary artery) oxygen content (Hb*1.34*O2 saturation). In the calculation of LVC, MRAP was used as an estimate of mean femoral venous pressure (MFVP), as MRAP was found in a series of measurements to equal MFVP, as estimated in 10 supine pigs. As a potential estimate for myocardial oxygen demand the rate pressure product (RPP=MAP*HR) was also calculated.
Drug infusions: Each animal was administered the nucleotides ATP, UTP, ADP (Sigma, St. Louis, Mo., USA) and ADO (Item Development AB, Stocksund, Sweden), through the internal jugular vein in the right atrium, in random order following blinded allocation. The nucleotides and ADO were prepared by dissolving in saline so as to achieve the target concentration of ATP (40±0.5 μmol/min), ADP (43±8 μmol/min), UTP (up to 1,600 μmol/min), and ADO (73±7 μmol/min). The nucleotides were infused in increasing dosages at 2 min intervals aiming at reducing MAP by maximally ˜50%. Thereafter, that specific infusion rate was maintained for ˜3-5 min. After each intervention the animal rested for ˜30 min, allowing resting cardiovascular variables to be reestablished. Thereafter, a new cycle of nucleotide infusion was administered. In the present study we aimed to allow the drugs to reduce MAP by ˜50%, but without inducing a hemodynamic and circulatory collapse, to simulate a pronounced state of systemic vasodilation, as may be observed for instance in a shock condition.

Data set [3] concerns coronary arteries in humans with coronary artery disease. Briefly: FFR during continuous intracoronary infusion via microcatheter (Example 3). The format is in vivo. As to conditions: individual patients, 320 μg/min.

Consider `O=c1ccn([C@@H]2O[C@H](COP(=O)(O)OP(=O)(O)OP(=O)(O)O)C(O)[C@@H]2O)c(=O)[nH]1` (stereo partly shown) [UTP, Uridine 5-triphosphate], for which the “FFR Mean” value in data set [1] is 0.72. Moreover, the “blood flow increase, % of maximum in the leg during hard exercise” value in the data set with leg blood flow (local infusion) is given as 60%. Further, in the data set on leg blood flow, the “relative vasoactive potency (rank order)” value is given as 100. Moreover, in data set [2], the “increase in CO (cardiac output)” value is 72.5±15.2% and ~70%; the “increase in HR from baseline” value amounted to 51.1±9.0%; the “decrease in SV (stroke volume)” value is “did not significantly change SV”; the “MAP lowered by, from baseline” value worked out at 35.0±3.2%. The “decrease in PVR (pulmonary vascular resistance) from baseline” value in data set [2] is given as “did not significantly alter”. The “arrhythmias (missed beats, VT, SVT or AV nodal block)” value in data set [2] (intravenous systemic infusion) is reported as “does not produce arrhythmias”. Besides, in data set [2] (maximal MAP reduction obtainable with UTP), the “infusion rate giving the ~35% reduction in MAP” value came out at 86.5 ± 18.2 µmol/min. Also, in data set [2] (p<0.05), the “decrease in SVR (systemic vascular resistance) from baseline” value is 62.9±2.6%; the “increase in LVC (leg vascular conductance) from baseline” value (shortened to “increase in LVC”) was 150.0±17.1% and ~150%. Besides, the “increase in LBF (leg blood flow)” value in data set [2] (p<0.05, FIG. 6c) was 53.7±17.8% and ~50%. Besides, in data set [2] (tendency), the “decrease in rate pressure product” value was about 10%. The FFR in data set [3] is 0.90 (2×) and 0.89 and 0.72 and 0.77 and 0.86 and 0.56 and 0.69 and 0.84.

Turning to `Nc1ncnc2c1ncn2[C@@H]1O[C@H](CO)[C@@H](O)[C@H]1O` [adenosine], the “FFR Mean” value in data set [1] came out at 0.77. Moreover, in the data set on leg blood flow, the “relative vasoactive potency (rank order)” value is on record as 5.8. Besides, in data set [2], the “increase in CO (cardiac output)” value stood at 31.4±9.9%; the “increase in HR from baseline” value is listed as “did not increase”; the “decrease in SV (stroke volume)” value is on record as “did not significantly change SV”; the “MAP lowered by, from baseline” value is listed as 47.2±1.5%. Also, the “decrease in PVR (pulmonary vascular resistance) from baseline” value in data set [2] was 34.3±2.6%. In data set [2] (p<0.05), the “decrease in LBF (leg blood flow) from baseline” value was 19.4±10.7%, the “decrease in SVR (systemic vascular resistance) from baseline” value amounted to 59.0±3.0% and the “increase in LVC” value is reported as about 50%. In addition, the “increase in LVC” value in data set [2] (p<0.05, listed as ADO) is 56.4±12.9%. Besides, in data set [2] (target ~50% reduction in baseline MAP, right atrium infusion), the “infusion rate at target MAP” value is 72.7 ± 6.6 µmol/min. For the same compound, the FFR in data set [3] (listed as ADO) is 0.79 and 0.96 and 0.54 and 0.70 (2×) and 0.95 and 0.86 and 1.02 and 0.89.

The values above are taken from patent US8394355B2, “Use of UTP for the diagnosis of stenoses and other conditions of restricted blood flow” (P2 science Aps, priority 2009, dated 2013).
